In patent US8716292B2, “Riminophenazines with 2-(heteroaryl)amino substituents and their anti-microbial activity” (priority 2010, dated 2014):
≈ marks a conversion by molar mass, not a printed value.

These molecules were tested on Mycobacterium tuberculosis H37Rv strains (assay: In vitro assay for antimicrobial susceptibility (microplate Alamar blue MIC)). Conditions: Mycobacterium tuberculosis, H37RV, 7H9, Alamar blue, inhibition ≧90%; read-out: MIC (μg/mL) against H37Rv.
Assay type: cell-based

With COC1CCC(/N=c2\cc3n(-c4ccc(F)cc4)c4ccccc4nc-3cc2Nc2ncccc2C#N)CC1 (stereo not drawn) [TBI-1082, 5-(4-Fluorophenyl)-3-(4-methoxycyclohexyl)imino-2-(3-cyano-2-pyridyl)amino-3,5-dihydrophenazine] as the molecule, how does the MIC read?
The MIC was 0.029 µg/mL (≈ 0.0559 µM).

How did the MIC turn out when COC1CCC(/N=c2\cc3n(-c4ccc(F)cc4)c4ccccc4nc-3cc2Nc2ncccn2)CC1 (stereo not drawn) [TBI-1080, 5-(4-Fluorophenyl)-3-(4-methoxycyclohexyl)imino-2-(pyrimidin-2-yl)amino-3,5-dihydrophenazine] was run?
Its MIC is 0.029 µg/mL (≈ 0.0586 µM).

For Clc1ccc(-n2c3c/c(=N\C4CCOCC4)c(Nc4cncnc4)cc-3nc3ccccc32)cc1 [TBI-960, 5-(4-Chlorophenyl)-3-(4-tetrahydropyranyl)imino-2-(pyrimidin-5-yl)amino-3,5-dihydrophenazine], which MIC is on record?
The MIC was 0.03 µg/mL (≈ 0.0621 µM).

Same assay, conditions: Mycobacterium tuberculosis, H37RV, in vitro, Mycobacterium tuberculosis H37Rv strains; read-out: MIC (μg/mL) against H37Rv

Which MIC does the source give for COC1CCC(/N=c2\cc3n(-c4ccccc4C(F)(F)F)c4ccccc4nc-3cc2Nc2cccnc2)CC1 (stereo not drawn) [TBI-739] here?
The MIC was 0.239 µg/mL (≈ 0.44 µM).

Which MIC does the source give for Cc1cncc(Nc2cc3nc4ccccc4n(-c4ccc(C(F)(F)F)cc4)c-3c/c2=N\C2CCC(O)CC2)c1 (stereo not drawn) [TBI-727, 5-(4-Trifluoromethylphenyl)-3-(4-hydroxycyclohexyl)imino-2-(5-methyl-3-pyridyl)amino-3,5-dihydrophenazine] here?
The MIC was 0.405 µg/mL (≈ 0.745 µM).

With Fc1ccc(-n2c3c/c(=N\C4CC4)c(Nc4cccnc4)cc-3nc3ccccc32)cc1F [TBI-1429, 5-(3,4-Difluorophenyl)-3-cyclopropylimino-2-(3-pyridyl)amino-3,5-dihydrophenazine] as the molecule, how does the MIC read?
The MIC was 0.011 µg/mL (≈ 0.025 µM).

COC1CCC(/N=c2\cc3n(-c4ccc(NC(C)=O)cc4)c4ccccc4nc-3cc2Nc2ccc(C)nc2)CC1 (stereo not drawn) [TBI-1229] was tested. Which MIC did it give?
Its MIC is 0.482 µg/mL (≈ 0.882 µM).

For Cc1cncc(Nc2cc3nc4ccccc4n(-c4ccccc4)c-3c/c2=N\C2CC2)c1 [TBI-096, 5-Phenyl-3-cyclopropylimino-2-(5-methyl-3-pyridyl)amino-3,5-dihydrophenazine], which MIC is on record?
The MIC was 0.069 µg/mL (≈ 0.165 µM).

With COc1ccc2nc3cc(Nc4ccc(C)nc4)/c(=N/C(C)C)cc-3n(-c3ccc(Cl)cc3)c2c1 [TBI-898] as the molecule, how does the MIC read?
Its MIC is 0.25 µg/mL (≈ 0.517 µM).

With Cc1cncc(Nc2cc3nc4ccccc4n(-c4ccccc4)c-3c/c2=N\C2CCCCC2)c1 [TBI-082, 5-Phenyl-3-cyclohexylimino-2-(5-methyl-3-pyridyl)amino-3,5-dihydrophenazine] as the molecule, how does the MIC read?
The MIC was 0.111 µg/mL (≈ 0.242 µM).

For COCC(COC)/N=c1\cc2n(-c3ccc(C)cc3)c3ccccc3nc-2cc1Nc1ccc(C)nc1 [TBI-374, 5-(4-Methylphenyl)-3-(1,3-dimethoxyisopropyl)imino-2-(6-methyl-3-pyridyl)amino-3,5-dihydrophenazine], which MIC is on record?
Its MIC is 0.125 µg/mL (≈ 0.253 µM).

How did the MIC turn out when COC1CCC(/N=c2\cc3n(-c4ccc(Cl)c(Cl)c4)c4ccccc4nc-3cc2Nc2ccc(C)nc2)CC1 (stereo not drawn) [TBI-355, 5-(3,4-Dichlorophenyl)-3-(4-methoxycyclohexyl)imino-2-(6-methyl-3-pyridyl)amino-3,5-dihydrophenazine] was run?
The MIC was 0.09 µg/mL (≈ 0.161 µM).

CC(=O)Nc1ccc(Nc2cc3nc4ccccc4n(-c4ccc(C(F)(F)F)cc4)c-3c/c2=N\C2CCOCC2)cn1 [TBI-712, 5-(4-Trifluoromethylphenyl)-3-(4-tetrahydropyranyl)imino-2-(6-acetamino-3-pyridyl)amino-3,5-dihydrophenazine] was tested. Which MIC did it give?
The MIC was 0.158 µg/mL (≈ 0.276 µM).

Cc1ccc(-n2c3c/c(=N\C4CC4)c(Nc4cncc(C)c4)cc-3nc3ccccc32)cc1 [TBI-342, 5-(4-Methylphenyl)-3-cyclopropylimino-2-(5-methyl-3-pyridyl)amino-3,5-dihydrophenazine] was tested. Which MIC did it give?
The MIC was 0.022 µg/mL (≈ 0.051 µM).

Cc1ccc(-n2c3c/c(=N\C(C)C)c(Nc4cccnc4)cc-3nc3ccccc32)cc1 [TBI-300, 5-(4-Methylphenyl)-3-(1-methylethyl)imino-2-(3-pyridyl)amino-3,5-dihydrophenazine] was tested. Which MIC did it give?
Its MIC is 0.03 µg/mL (≈ 0.0715 µM).

How did the MIC turn out when COc1ccc(Nc2cc3nc4ccccc4n(-c4ccc(C)cc4)c-3c/c2=N\C2CCOCC2)cn1 [TBI-360, 5-(4-Methylphenyl)-3-(4-tetrahydropyranyl)imino-2-(6-methoxy-3-pyridyl)amino-3,5-dihydrophenazine] was run?
The MIC was 0.2 µg/mL (≈ 0.407 µM).

With Fc1ccc(-n2c3c/c(=N\C4CCCCC4)c(Nc4cccnc4)cc-3nc3ccccc32)cc1F [TBI-527, 5-(3,4-Difluorophenyl)-3-cyclohexylimino-2-(3-pyridyl)amino-3,5-dihydrophenazine] as the molecule, how does the MIC read?
Its MIC is 0.039 µg/mL (≈ 0.081 µM).

Cc1ncccc1Nc1cc2nc3ccccc3n(-c3cccc(OC(F)(F)F)c3)c-2c/c1=N\C1CCOCC1 [TBI-1035, 5-(3-Trifluoromethoxyphenyl) 3-(4-tetrahydropyranyl)imino-2-(2-methyl-3-pyridyl)amino-3,5-dihydrophenazine] was tested. Which MIC did it give?
Its MIC is 0.062 µg/mL (≈ 0.114 µM).

How did the MIC turn out when CN1CCC(/N=c2\cc3n(-c4ccc(F)cc4)c4ccccc4nc-3cc2Nc2cccnc2)CC1 [TBI-682] was run?
Its MIC is 0.25 µg/mL (≈ 0.522 µM).

COc1ncccc1Nc1cc2nc3ccc(F)cc3n(-c3ccc(OC(F)(F)F)cc3)c-2c/c1=N\C1CCCCC1 [TBI-856, 7-Fluoro-5-(4-trifluoromethoxyphenyl)-3-cyclohexylimino-2-(2-methoxy-3-pyridyl)amino-3,5-dihydrophenazine] was tested. Which MIC did it give?
Its MIC is 0.029 µg/mL (≈ 0.0502 µM).

How did the MIC turn out when Cc1cncc(Nc2cc3nc4ccccc4n(-c4ccc(F)cc4)c-3c/c2=N\C2CCC2)c1 [TBI-1031] was run?
Its MIC is 0.028 µg/mL (≈ 0.0623 µM).

For Cc1ccc(Nc2cc3nc4ccccc4n(-c4ccc(Cl)cc4)c-3c/c2=N\C(C)C)cn1 [TBI-441], which MIC is on record?
Its MIC is 0.06 µg/mL (≈ 0.132 µM).

With Cc1ncccc1Nc1cc2nc3ccccc3n(-c3ccc(F)cc3)c-2c/c1=N\C(C)C [TBI-693, 5-(4-Fluorophenyl)-3-(1-methylethyl)imino-2-(2-methyl-3-pyridyl)amino-3,5-dihydrophenazine] as the molecule, how does the MIC read?
Its MIC is 0.03 µg/mL (≈ 0.0686 µM).

Which MIC does the source give for CC(C)/N=c1\cc2n(-c3ccc(F)cc3)c3ccccc3nc-2cc1Nc1cccnc1 [TBI-679, 5-(4-Fluorophenyl)-3-(1-methylethyl)imino-2-(3-pyridyl)amino-3,5-dihydrophenazine] here?
Its MIC is 0.03 µg/mL (≈ 0.0708 µM).

With CC(C)CN1CCC(/N=c2\cc3n(-c4ccc(C(F)(F)F)cc4)c4ccccc4nc-3cc2Nc2cccnc2)CC1 [TBI-687, 5-(4-Trifluoromethylphenyl)-3-(N-isobutyl-4-piperidyl)imino-2-(3-pyridyl)amino-3,5-dihydrophenazine] as the molecule, how does the MIC read?
Its MIC is 0.06 µg/mL (≈ 0.105 µM).

Cc1ccc(Nc2cc3nc4ccc(F)cc4n(-c4ccc(Cl)cc4)c-3c/c2=N\C(C)C)cn1 [TBI-914, 7-Fluoro-5-(4-chlorophenyl)-3-(1-methylethyl)imino-2-(6-methyl-3-pyridyl)amino-3,5-dihydrophenazine] was tested. Which MIC did it give?
Its MIC is > 0.5 µg/mL.

Which MIC does the source give for CC(=O)Nc1ccc(Nc2cc3nc4ccccc4n(-c4ccc(C(F)(F)F)cc4)c-3c/c2=N\C(C)C)cn1 [TBI-711, 5-(4-Trifluoromethylphenyl)-3-(1-methylethyl)imino-2-(6-acetamino-3-pyridyl)amino-3,5-dihydrophenazine] here?
The MIC was 0.11 µg/mL (≈ 0.207 µM).

Cc1ccc(Nc2cc3nc4ccccc4n(-c4ccc(Cl)cc4)c-3c/c2=N\CCN2CCOCC2)cn1 [TBI-445, 5-(4-Chlorophenyl)-3-(2-morpholinoethyl)imino-2-(6-methyl-3-pyridyl)amino-3,5-dihydrophenazine] was tested. Which MIC did it give?
Its MIC is 0.076 µg/mL (≈ 0.145 µM).

With CC(C)/N=c1\cc2n(-c3ccc([S+](C)[O-])cc3)c3ccccc3nc-2cc1Nc1cccnc1 (stereo not drawn) [TBI-457, 5-(4-Methylsulfinylphenyl)-3-(1-methylethyl)imino-2-(3-pyridyl)amino-3,5-dihydrophenazine] as the molecule, how does the MIC read?
Its MIC is 0.469 µg/mL (≈ 1 µM).

How did the MIC turn out when Cc1ccc(Nc2cc3nc4ccccc4n(-c4ccc(Cl)cc4)c-3c/c2=N\C2CCN(CC(C)C)CC2)cn1 [TBI-447, 5-(4-Chlorophenyl)-3-(N-isobutyl-4-piperidyl)imino-2-(6-methyl-3-pyridyl)amino-3,5-dihydrophenazine] was run?
The MIC was 0.028 µg/mL (≈ 0.0508 µM).

How did the MIC turn out when Cc1ccc(Nc2cc3nc4cc(C#N)ccc4n(-c4ccc(F)cc4)c-3c/c2=N\C(C)C)cn1 [TBI-1067, 8-Cyano-5-(4-fluorophenyl)-3-(1-methylethyl)imino-2-(6-methyl-3-pyridyl)amino-3,5-dihydrophenazine] was run?
Its MIC is 0.117 µg/mL (≈ 0.253 µM).

Which MIC does the source give for COC1CCC(/N=c2\cc3n(-c4ccc(F)cc4)c4ccccc4nc-3cc2Nc2cccnc2)CC1 (stereo not drawn) [TBI-685, 5-(4-Fluorophenyl)-3-(4-methoxycyclohexyl)imino-2-(3-pyridyl)amino-3,5-dihydrophenazine] here?
The MIC was 0.125 µg/mL (≈ 0.253 µM).

COCC(C/N=c1\cc2n(-c3cccc(Cl)c3)c3ccccc3nc-2cc1Nc1cccnc1OC)OC (stereo not drawn) [TBI-826, 5-(3-Chlorophenyl)-3-(2,3-dimethoxy-1-propyl)imino-2-(2-methoxy-3-pyridyl)amino-3,5-dihydrophenazine] was tested. Which MIC did it give?
The MIC was 0.125 µg/mL (≈ 0.236 µM).

How did the MIC turn out when COc1ncccc1Nc1cc2nc3ccccc3n(-c3ccc(Br)cc3)c-2c/c1=N\C1CCC(OC)CC1 (stereo not drawn) [TBI-521, 5-(4-Bromophenyl)-3-(4-methoxycyclohexyl)imino-2-(2-methoxy-3-pyridyl)amino-3,5-dihydrophenazine] was run?
The MIC was 0.031 µg/mL (≈ 0.053 µM).

Which MIC does the source give for Cc1ccc(Nc2cc3nc4ccccc4n(-c4ccc(Cl)cc4)c-3c/c2=N\C2CCN(C)CC2)cn1 [TBI-446, 5-(4-Chlorophenyl)-3-(N-methyl-4-piperidyl)imino-2-(6-methyl-3-pyridyl)amino-3,5-dihydrophenazine] here?
The MIC was 0.016 µg/mL (≈ 0.0314 µM).

Which MIC does the source give for CC(=O)Nc1ccc(Nc2cc3nc4ccccc4n(-c4ccc(F)cc4)c-3c/c2=N\C2CCOCC2)cn1 [TBI-911, 5-(4-Fluorophenyl)-3-(4-tetrahydropyranyl)imino-2-(6-acetamino-3-pyridyl)amino-3,5-dihydrophenazine] here?
Its MIC is 0.36 µg/mL (≈ 0.689 µM).

With Cc1ccc(Nc2cc3nc4cc(F)ccc4n(-c4ccc(Cl)cc4)c-3c/c2=N\C(C)C)cn1 [TBI-943, 8-Fluoro-5-(4-chlorophenyl)-3-(1-methylethyl)imino-2-(6-methyl-3-pyridyl)amino-3,5-dihydrophenazine] as the molecule, how does the MIC read?
Its MIC is 0.06 µg/mL (≈ 0.127 µM).

With Cc1ccc(Nc2cc3nc4ccccc4n(-c4ccc(Br)cc4)c-3c/c2=N\C2CC2)cn1 [TBI-100, 5-(4-Bromophenyl)-3-cyclopropylimino-2-(6-methyl-3-pyridyl)amino-3,5-dihydrophenazine] as the molecule, how does the MIC read?
The MIC was 0.011 µg/mL (≈ 0.0222 µM).

Fc1ccc(-n2c3c/c(=N\C4CCN(C5CCCC5)CC4)c(Nc4cccnc4)cc-3nc3ccccc32)cc1 [TBI-684, 5-(4-Fluorophenyl)-3-(N-cyclopentyl-4-piperidyl)imino-2-(3-pyridyl)amino-3,5-dihydrophenazine] was tested. Which MIC did it give?
Its MIC is 0.5 µg/mL (≈ 0.939 µM).
